Experimental data: PubChem BioAssay AID1996
≈ marks a conversion by molar mass, not a printed value.

details: buffer; pH 7.4; 200.0 µM

Row | SMILES | solubility kinetic [µg/mL]
1 | CCOC(=O)c1c(/N=C/c2ccc(OC)cc2O)sc2c1CCN(C)C2 | 37 (≈ 98.8 µM)
2 | O=C(CSc1nnc(Nc2ccccc2)s1)NC1CCS(=O)(=O)C1 (stereo not given) | > 57.7
3 | CCC1(C)Cc2ccccc2C(=O)N1 (stereo not given) | 25.2 (≈ 133 µM)
4 | S=C(NCCc1ccccn1)Nc1ccccc1 | 32.1 (≈ 125 µM)
5 | O=C(COC(=O)COc1ccccc1)Nc1ncc(Cl)cc1Cl | 47 (≈ 132 µM)
6 | O=C(COc1ccccc1F)Nc1ccc2c(c1)OCCO2 | 14.1 (≈ 46.5 µM)
7 | COc1ccc(N2CCN(C(=O)CCc3ccccc3)CC2)cc1 | > 48.7
8 | Cc1occc1C(=O)Nc1ccccc1C#N | > 33.9
9 | CCCCn1c(N)c(N(CC)C(=O)c2c(C)noc2C)c(=O)[nH]c1=O | > 52.4
10 | Cc1ccc(C)n1CCN1CCN(S(=O)(=O)c2ccc(F)cc2F)CC1 | 26.1 (≈ 68.1 µM)
11 | CCn1c(/C=C/c2ccccc2F)nc2ccccc2c1=O | 2.2 (≈ 7.47 µM)
12 | CCOc1ccc(CSCCNC(=S)Nc2ccc(OC)cc2)cc1 | 1.1 (≈ 2.92 µM)
13 | Nc1ccc2nc(CCCCCCc3nc4ccc(N)cc4[nH]3)[nH]c2c1 | > 52.3
14 | O=C(COC(=O)c1ccc(F)cc1)Nc1ccc2c(c1)OCO2 | 4.5 (≈ 14.2 µM)
15 | Cn1c(C(=O)N[C@@H](C(=O)O)c2ccccc2)cc2cc(Cl)ccc21 | > 51.4
16 | O=C(Nc1cc(Cl)ccc1O)C1CC(c2ccccc2O)=NO1 (stereo not given) | 5.8 (≈ 17.4 µM)
17 | CN(C)/C=N/c1nccc(-c2cccs2)n1 | > 34.8
18 | O=c1[nH]c(O)c(C=Nc2ccccc2Oc2ccccc2)c(=O)[nH]1 | 0.8 (≈ 2.47 µM)
19 | CC1CCCN(S(=O)(=O)c2ccc3oc(=O)ccc3c2)C1 (stereo not given) | 20 (≈ 65.1 µM)
20 | Cc1cccc(C)c1NC(=O)C[n+]1cc(-c2ccccc2)n2c1CCC2.[Cl-] | > 57.3

Row | SMILES | solubility kinetic [µg/mL]
21 | CC(C)(C)C(=O)O/N=C(\N)c1ccc([N+](=O)[O-])s1 | 8.2 (≈ 30.2 µM)
22 | CCCc1c(C)nc(N2CCN(c3ccccc3F)CC2)[nH]c1=O | 0.4 (≈ 1.21 µM)
23 | Cc1cc(S(=O)(=O)N2CCc3ccccc3C2)ccc1F | < 0.7
24 | Cc1ccccc1NC(=O)C1C2CCCCC21 (stereo not given) | 3.4 (≈ 14.8 µM)
25 | COC(=O)c1cccc(NC(=O)c2cccc([N+](=O)[O-])c2)c1 | 3.8 (≈ 12.7 µM)
26 | CC(=C1C(=O)c2ccccc2C1=O)N1CCN(c2ccc(F)cc2)CC1 | > 52.6
27 | C=Cc1cccc(NC(=O)c2ccc(NC(=O)c3ccco3)cc2)c1 | 3.1 (≈ 9.33 µM)
28 | CCC(=O)Nc1ccc(NC(=O)c2cccc3ccccc23)cc1 | < 0.3
29 | CCN(CC)CCn1c(=S)[nH]c2ccc(Br)cc2c1=O | > 53.4
30 | CC(=O)c1sc(NC(=O)c2ccc(Cl)cc2)nc1C | 0.5 (≈ 1.7 µM)
31 | O=C(COC(=O)c1ccco1)Nc1cc(S(=O)(=O)N2CCCCC2)ccc1Cl | 6.7 (≈ 15.7 µM)
32 | CCOC(=O)c1c(S(=O)(=O)N2CCCC2)c(C)n(C)c1C | > 47.2
33 | Cc1ccc(S(=O)(=O)NCCc2c[nH]c3ccccc23)cc1 | 37.7 (≈ 120 µM)
34 | O=C1CN(C(=O)/C=C/c2ccccc2F)c2ccccc2N1 | 12.9 (≈ 43.5 µM)
35 | Cc1ccc(NC(=O)c2cccs2)cc1[N+](=O)[O-] | 2.4 (≈ 9.15 µM)
36 | Nc1c(NCCc2ccccc2)c2ccccc2oc1=O | > 42
37 | COc1ccc(C)cc1NC(=O)Nc1ccncc1 | 4.6 (≈ 17.9 µM)
38 | C/C(=N\n1c(C)nc2ccccc2c1=O)c1ccc(C)o1 | > 42.2
39 | Cc1cccc(C)c1NC(=O)CN(C)C(=O)C1CCCCC1 | > 45.4
40 | Cc1ccsc1/C=N/NC(=O)CNC(=O)c1ccco1 | > 43.7

Row | SMILES | solubility kinetic [µg/mL]
41 | CC(=O)Nc1ccccc1C(=O)C(=O)Nc1cccc(Br)c1 | 29.1 (≈ 80.6 µM)
42 | CSc1ncc(C(=O)Nc2ccccc2)cn1 | > 36.8
43 | CCc1nonc1NC(=O)c1oc2cc(C)c(C)cc2c1C | 0.3 (≈ 1 µM)
44 | O=C(COC(=O)c1cncc(Br)c1)NC1CCCC1 | > 49.1
45 | CC(=O)c1cccc(OCC(O)CNCC2CCCCC2)c1 (stereo not given) | > 45.8
46 | COc1ccc(S(=O)(=O)NCC(=O)NC2CC2)cc1OC | > 47.2
47 | COc1cccc(OCCNc2ccc([N+](=O)[O-])cn2)c1 | 4.7 (≈ 16.2 µM)
48 | CN(C)/C=C/C(=O)c1ccc(OCCN(C)c2ccccn2)cc1 | > 48.8
49 | COc1ccc(S(=O)(=O)NCC2CCC(C(=O)O)CC2)cc1 (stereo not given) | > 49.1
50 | Cc1cc(=O)[nH]c(SCC(=O)N2CCN(C(=O)c3ccco3)CC2)n1 | > 54.4
51 | COc1ccc(CNC(=O)COC(=O)c2ccc(S(=O)(=O)N3CCCCC3)cc2)cc1 | 2.1 (≈ 4.7 µM)
52 | COc1ccc(CC(=O)N2CCN(c3ccccc3)CC2)cc1OC | 49.9 (≈ 147 µM)
53 | CCOC(=O)c1sc(NC(=O)c2ccc(OC(C)=O)cc2)nc1C | 0.7 (≈ 2.01 µM)
54 | CCc1ccccc1NC(=O)CN(C)C(=O)COC(=O)c1cccnc1Cl | > 58.5
55 | COC(=O)c1sccc1NC(=O)Nc1ccccc1Cl | 25.8 (≈ 83 µM)
56 | Cn1c(C2CCCCC2)nc2c1c(=O)[nH]c(=O)n2Cc1ccccc1 | 16.7 (≈ 49.3 µM)
57 | O=C1/C(=C/c2ccncc2)CCc2ccccc21 | 34.2 (≈ 145 µM)
58 | Cc1csc(SCC(=O)NC2CCCC2)n1 | > 38.5
59 | O=C(CN(c1ccccc1Cl)S(=O)(=O)c1ccccc1)NCc1ccccc1 | 18.7 (≈ 45.1 µM)
60 | CC(NCc1ccccc1)c1ccccc1O (stereo not given) | 27.2 (≈ 120 µM)
